Data from patent US9243254B2, “Method for transforming a bacterium belonging to the streptococcus genus by natural competence” (priority 2009, dated 2016).

Assays:
Assay type in all cases: cell-based, Streptococcus thermophilus
[1] = system: LMD9-Δblp::PcomX-luxABΔshp316::P32-cat; assay: Natural transformation in CDM of the shp316-deleted strain upon addition of synthetic peptides (test A); details: for Transformation rate / Transformation rate, With peptide addition: 1 μg/mL pGIUD0855ery; for Transformation rate, With peptide addition / Restoration of the competence defect: 1 μM synthetic peptide; for Transformation rate, With peptide addition: CDM, erythromycin selection
Protocol: A mutant strain of LMD-9 in which the shp316 gene (which is the gene encoding the peptide Shp316) has been inactivated, such as strain LMD9-Δblp::PcomX-luxABΔshp316::P32-cat (see Example 2 for details on this strain) is pre-cultivated in M17-lactose medium. The cells of the preculture are harvested (5000 g, 9 minutes, 20° C.) and washed twice in Chemically Defined Medium (CDM, see Annex I) and then resuspended in CDM. The washed cells are diluted in fresh CDM medium to obtain an optical density of 0.05 at 600 nm, and then incubated at 37° C. After 1.5 h of incubation, the culture is separated in 2 aliquots of 10 mL and 0 or 1000 nM of peptide are added in the culture samples. Finally, each 10 mL-aliquot is divided in 2 samples of 5 mL each. One of the 2 samples receives 1 μg/mL pGIUD0855ery, a plasmid bearing an erythromycin resistance gene. The competence phenotype of the samples is studied by performing natural transformation experiments as described in example 1. The cultures are grown for 6 hours and serial dilutions are plated on the surface of M17-lactose agar medium containing or not 2.5 μg/mL of erythromycin. The transformation rate in the presence or absence of peptide is calculated for each sample; it is expressed as the ratio of erythromycin-resistant cells among the total bacterial population.
The experimental strategy is described below. Strain LMD9-Δblp::PcomX-luxABΔshp316::P32-cat is precultivated in M17-lactose medium. The cells of the preculture were harvested (5000 g, 9 minutes, 20° C.) and washed twice in CDM and then resuspended in CDM. The washed cells are diluted in fresh CDM to obtain an optical density of 0.05 at 600 nm, and then incubated at 37° C. After 1.5 h of incubation, in one set of experiment, 1 μM of one of the tested synthetic peptides and 1 μg/mL of pGIUD0855ery were added to the culture; whereas 1 μg/mL of pGIUD0855ery but no synthetic peptide was added to the second set of experiment. The cultures were grown during 6 hours and serial dilutions were plated on the surface of M17-lactose agar medium containing 2.5 μg/mL of erythromycin to measure transformation efficiency.
Ability of peptides derived from Shp316 to restore the competence defect of LMD9-Δblp::PcomX-luxABΔshp316::P32-cat was further investigated focusing on the synthetic peptide PYFAGCL. Experimental work was performed as described above except that various concentrations of PYFAGCL were used: 0 nM, 1 nM, 10 nM, 100 nM, 500 nM, 1 μM, 2.5 μM and 5 μM. […]

S. thermophilus LMD-9 = assay: Natural transformation in CDM upon addition of synthetic peptide
Protocol: Similarly to the protocol used in example 4, strains LMD-9, LMG18311, CNRZ1066 and JIM8777 were pre-cultivated in M17-lactose medium. The cells of the precultures were harvested (5000 g, 9 minutes, 20° C.) and washed twice in CDM and then resuspended in CDM. The washed cells were diluted in fresh CDM medium to obtain an optical density of 0.05, and then incubated at 37° C. After 1.5 h of incubation, in one set of experiment, 1 μM of one of the tested synthetic peptides and 1 μg/mL of pGIUD0855ery DNA (in case of S. thermophilus strains), or 1 μg/ml of pG+host09 DNA (in case of S. salivarius strains) were added to the culture, whereas 1 μg/mL of DNA but no synthetic peptide was added to the second set of experiment. The cultures were grown during 6 hours and serial dilutions were plated on the surface of M17-lactose agar medium containing 2.5 μg/mL of erythromycin to measure transformation efficiency. Transformed S. thermophilus and S. salivarius cells are selected at 37° C. and 29° C., respectively.
Similarly to the protocol used in example 4, various S. thermophilus strains, including LMD-9, CNRZ1066 and LMG18311 used as controls, were pre-cultivated in M17-lactose medium. The cells of the precultures were harvested (5000 g, 9 minutes, 20° C.) and washed twice in CDM and then resuspended in CDM. The washed cells were diluted in fresh CDM medium to obtain an optical density of 0.05, and then incubated at 37° C. After 1.5 h of incubation, in one set of experiment, 1 μM of one of the tested synthetic peptides (LPYFAGCL) (SEQ ID NO: 85) and 1 μg/mL of pGIUD0855cat DNA were added to the culture, whereas 1 μg/mL of DNA but no synthetic peptide was added to the second set of experiment. Plasmid pGIUD0855cat is a pUC18-derivative containing a chloramphenicol resistance cassette flanked by 1-kb fragments corresponding to the upstream and downstream regions of stu0855. Upon transformation, it promotes the genetic replacement of stu0855 by P32-cat through homologous recombination (FIG. 7). The cultures were grown during 6 hours and serial dilutions were plated on the surface of M17-lactose agar medium containing 5 μg/mL of chloramphenicol to measure transformation efficiency. Transformed S. thermophilus cells were selected at 37° C.; when transformants were obtained, the transformation efficiency was calculated and is given in Table 9.
The overlapping PCR product was transferred through natural competence in strain LMD-9. Similarly to the protocol used in example 4, strain LMD-9 was pre-cultivated in M17-lactose medium. The cells of the precultures were harvested (5000 g, 9 minutes, 20° C.) and washed twice in CDM and then resuspended in CDM. The washed cells were diluted in fresh CDM medium to obtain an optical density of 0.05, and then incubated at 37° C. After 1.5 hour of incubation, 1 μM of LPYFAGCL (SEQ ID NO: 85) synthetic peptide and 1 μg/mL of the PCR product prepared above (joining the A, B and C fragments) were added to the culture. After the DNA uptake by the bacteria, the P32-cat cassette flanked by the two lox sites spontaneously replaces the his operon by double homologous recombination (FIG. 10). The transformation rate of the overlapping PCR was 1.1×10^−6 (160 Chloramphenicol-resistant CFU/mL). One isolate named CB15 was selected. […]

S. thermophilus LMG18311 = assay: as above
[2] = 1 μM PYFAGCL, 1 μg/mL pGIUD0855ery
[3] = 1 μM peptide in CDM versus no peptide
[4] = 1 μM LPYFAGCL, 1 μg/mL pUC18_stu0855::P32cat, chloramphenicol selection

Substance | Transformation rate ([1]; 1 nM PYFAGCL) | Transformation rate ([1]; 10 nM PYFAGCL) | Transformation rate ([1]; 100 nM PYFAGCL) | Transformation rate ([1]; 500 nM PYFAGCL) | Transformation rate, With peptide addition [1] | Restoration of the competence defect ([1]; result in words) | Transformation rate ([1]; 1000 nM PYFAGCL) | Transformation rate ([1]; 2500 nM PYFAGCL) | Transformation rate ([1]; 5000 nM PYFAGCL) | Restoration of competence ([1]; concentrations lower than 100 nM, result in words) | Concentration at which maximum efficiency of the peptide was recorded ([1]; dose-response 0 nM to 5 μM) | Transformation rate, With peptide addition (S. thermophilus LMD-9; [2]) | Increase of natural competence upon extracellular peptide addition (S. thermophilus LMD-9; [3]) | Transformation rate, With peptide addition (S. thermophilus LMG18311; [2]) | Increase of efficiency of transformation upon peptide addition (S. thermophilus LMG18311; [3]) | Chloramphenicol-resistant CFU obtained with the overlapping PCR (S. thermophilus LMD-9; 1 μM LPYFAGCL, 1 μg/mL overlapping PCR product) | Transformation rate of the overlapping PCR (S. thermophilus LMD-9; 1 μM LPYFAGCL, 1 μg/mL overlapping PCR product (his operon replacement by lox66-P32cat-lox71)) | Transformation rate, With peptide addition (S. thermophilus LMD-9; [4]) | Transformation rate, With peptide addition (S. thermophilus LMG18311; [4]) | Calculated efficiency of transformation (S. thermophilus LMG18311; LPYFAGCL-induced competence, forty six μg of LMD-9 genomic DNA, selection on CDM agar deprived of histidine)
PYFAGCL (fragment) | <10^−8 | <10^−8 | 4.14 × 10^−7 | 1.01 × 10^−3 | 4.78 × 10^−3 | allowed to restore the competence defect | 5.15 × 10^−3 | 3.10 × 10^−3 | 6.38 × 10^−3 | did not restore the competence | 1 µM | 3.10 × 10^−3 | 10 fold | 3.17 × 10^−4 | 1000 fold |  |  |  |  | 
LPYFAGCL (fragment) [synthetic peptide corresponding to a C-terminal fragment of Shp316] |  |  |  |  | 3.18 × 10^−3 | allowed to restore the competence defect |  |  |  |  |  |  |  |  |  | 160 CFU/mL | 1.1×10^−6 | 5.4 × 10^−3 | 1.3 × 10^−1 | 0.00016 µg⁻¹
